Converted amounts (≈) assume the structure as drawn.
What was measured:
Norovirus [1] = experiment: Inhibition of norovirus VA387 binding to HBGA A type antigen in human saliva at 10.9 uM by EIA; assay type: functional
Norovirus [2] = experiment: Inhibition of recombinant norovirus Norwalk binding to human HBGA A antigen by EIA; assay type: functional
[3] = Solubility of the compound; assay type: physicochemical
Norovirus [4] = experiment: Inhibition of recombinant norovirus VA387 binding to human HBGA H antigen by EIA; assay type: functional
Norovirus [5] = experiment: Inhibition of recombinant norovirus VA387 binding to human HBGA A antigen by EIA; assay type: functional
Norovirus [6] = experiment: Inhibition of recombinant norovirus VA207 binding to human HBGA Le antigen by EIA; assay type: functional
Norovirus [7] = experiment: Inhibition of recombinant norovirus MOH binding to human HBGA B antigen by EIA; assay type: functional
[8] = Cytotoxicity against HeLa cells by MTS assay; assay type: cell-based; conditions: human
Norovirus [9] = experiment: Inhibition of recombinant norovirus Norwalk binding to human HBGA H antigen by EIA; assay type: functional
Norovirus [10] = experiment: Inhibition of norovirus recombinant VA387 binding to human HBGA B antigen by EIA; assay type: functional
Norovirus [11] = experiment: Inhibition of recombinant norovirus MOH binding to human HBGA A antigen by EIA; assay type: functional
Norovirus [12] = experiment: Inhibition of norovirus VA387 binding to HBGA A type antigen in human saliva at 2.2 uM by EIA; assay type: functional
Norovirus [13] = experiment: Inhibition of norovirus VA387 binding to HBGA A type antigen in human saliva at 13.7 uM by EIA; assay type: functional
Norovirus [14] = experiment: Inhibition of norovirus VA387 binding to HBGA A type antigen in human saliva at 11.7 uM by EIA; assay type: functional
Norovirus [15] = experiment: Inhibition of norovirus VA387 binding to HBGA A type antigen in human saliva at 11.8 uM by EIA; assay type: functional
Norovirus [16] = experiment: Inhibition of norovirus VA387 binding to HBGA A type antigen in human saliva at 9.3 uM by EIA; assay type: functional
Norovirus [17] = experiment: Inhibition of norovirus VA387 binding to HBGA A type antigen in human saliva at 12.8 uM by EIA; assay type: functional
Norovirus [18] = experiment: Inhibition of norovirus VA387 binding to HBGA A type antigen in human saliva at 13.6 uM by EIA; assay type: functional
Norovirus [19] = experiment: Inhibition of norovirus VA387 binding to HBGA A type antigen in human saliva at 4.8 uM by EIA; assay type: functional
Norovirus [20] = experiment: Inhibition of norovirus VA387 binding to HBGA A type antigen in human saliva at 9.1 uM by EIA; assay type: functional
Norovirus [21] = experiment: Inhibition of norovirus VA387 binding to HBGA A type antigen in human saliva at 9.6 uM by EIA; assay type: functional
Norovirus [22] = experiment: Inhibition of norovirus VA387 binding to HBGA A type antigen in human saliva at 8.1 uM by EIA; assay type: functional

EC50 (Norovirus [2]) [µM] | solubility [3] [µM] | EC50 (Norovirus [4]) [µM] | EC50 (Norovirus [5]) [µM] | EC50 (Norovirus [6]) [µM] | EC50 (Norovirus [7]) [µM] | EC50 (Norovirus [9]) [µM] | EC50 (Norovirus [10]) [µM] | EC50 (Norovirus [11]) [µM] | SMILES | CC50 [8] [µM] | also measured
> 100 | 400 (≈ 140 µg/mL) | > 100 | 10.9 | > 100 | > 100 | > 100 | > 100 | > 100 | O=C(/C=C/c1ccc(-c2cc(Cl)cc(Cl)c2)o1)c1cccs1 | 157 | inhibition at 10.9 µM (Norovirus [1]): 49%
15.6 | 400 | 6.8 | 2.2 | > 100 | > 100 | 18.9 | 5.8 | > 100 | CCC[n+]1cc(-c2ccccc2)nc(N2CCOCC2)n1.[I-] | 158 | inhibition at 2.2 µM (Norovirus [12]): 49.3%
> 100 | > 100 | > 100 | 13.7 | > 100 | > 100 | > 100 | > 100 | > 100 | CCCOc1ccc(-c2cc(C(=O)N/N=C/c3ccc(OCC)cc3)[nH]n2)cc1 | 12.3 | inhibition at 13.7 µM (Norovirus [13]): 51.1%
> 100 | > 100 | 47.5 | 11.7 | > 100 | > 100 | > 100 | > 100 | > 100 | Cc1ccc(NC(=O)CC(c2ccccc2)c2ccccc2)cc1C | 40.3 | inhibition at 11.7 µM (Norovirus [14]): 51.4%
35 | 400 (≈ 182 µg/mL) | 7.5 | 11.8 | > 100 | > 100 | 19.8 | 7.9 | > 100 | CC(C)OC(=O)CC(=O)CSc1nc(-c2ccc(F)cc2)cc(-c2cccs2)c1C#N | 220 | inhibition at 11.8 µM (Norovirus [15]): 50.9%
> 100 | 400 (≈ 111 µg/mL) | 41.1 | 9.3 | > 100 | > 100 | > 100 | 44.6 | > 100 | O=CC(=O)c1ccc2c(c1)Cc1cc(C(=O)C=O)ccc1-2 | 52.7 | inhibition at 9.3 µM (Norovirus [16]): 53.8%
53 | 400 (≈ 107 µg/mL) | 28.2 | 12.8 | > 100 | > 100 | 47.8 | 32.5 | > 100 | CCCCc1ccc(NC(=O)c2ccc(C)cc2)cc1 | 180 | inhibition at 12.8 µM (Norovirus [17]): 54.3%
> 100 | 400 (≈ 265 µg/mL) | 26.1 | 12.8 | > 100 | > 100 | > 100 | 35.3 | > 100 | O=C(C(=O)c1ccc(C(=O)c2ccc(C(=O)C(=O)c3ccc(Sc4ccccc4)cc3)cc2)cc1)c1ccc(Sc2ccccc2)cc1 | 263 | inhibition at 12.8 µM (Norovirus [17]): 46.1%
> 100 | 400 (≈ 193 µg/mL) | 48.1 | 13.6 | > 100 | > 100 | > 100 | 49.5 | > 100 | Cc1cc(O)c(Sc2c(O)cc(C)cc2C(C)(C)c2ccccc2)c(C(C)(C)c2ccccc2)c1 | 70.6 | inhibition at 13.6 µM (Norovirus [18]): 48.9%
22.9 | 400 (≈ 180 µg/mL) | 11.9 | 4.8 | > 100 | 13.3 | 24.5 | 18.6 | 16.5 | CCOC(=O)C1=C(C)OC(N)=C(C#N)C1c1ccc(OCc2ccc(C)cc2)c([N+](=O)[O-])c1 (stereo not drawn) | 78.6 | inhibition at 4.8 µM (Norovirus [19]): 61.1%
18.2 | 400 (≈ 165 µg/mL) | 7.2 | 9.1 | > 100 | > 100 | 36.3 | 13.5 | > 100 | CCCc1ccc(OCc2ccc(C(=O)N/N=C/c3ccc(Cl)cc3O)o2)cc1 | 46.7 | inhibition at 9.1 µM (Norovirus [20]): 62.9%
> 100 | 400 (≈ 88.1 µg/mL) | 7.6 | 9.6 | > 100 | > 100 | > 100 | 26 | > 100 | Oc1ccc(/C=N/c2nccs2)c(O)c1 | 324 | inhibition at 9.6 µM (Norovirus [21]): 45.3%
14.1 | 400 (≈ 198 µg/mL) | 14.2 | 8.1 | > 100 | > 100 | 22.6 | 13.1 | > 100 | C=C(SCCNC(=O)NCCCCCCNC(=O)NCCSc1ccccc1O)/C(C)=C\C | 113 | inhibition at 8.1 µM (Norovirus [22]): 59.3%
